Results reported in patent US20050130232A1, “Methods of screening for compounds that modulate hormone receptor activity” (Allergan, Inc., priority 2001, published 2005).

How the values were obtained:
[1] = target: T1, RXR-associated protein kinase in Flag-RXR immunocomplexes (Homo sapiens, UniProt P19793); assay: In vitro kinase reaction with [γ-32P]ATP on Flag-RXR immunocomplexes from transfected HEK 293 cells; type: cell-based; conditions: transfected HEK 293 cells treated with ligand before anti-Flag immunoprecipitation
T1 construct: expressed in transfected cells; host or cells: HEK 293
T1 sequence (P19793 1-462): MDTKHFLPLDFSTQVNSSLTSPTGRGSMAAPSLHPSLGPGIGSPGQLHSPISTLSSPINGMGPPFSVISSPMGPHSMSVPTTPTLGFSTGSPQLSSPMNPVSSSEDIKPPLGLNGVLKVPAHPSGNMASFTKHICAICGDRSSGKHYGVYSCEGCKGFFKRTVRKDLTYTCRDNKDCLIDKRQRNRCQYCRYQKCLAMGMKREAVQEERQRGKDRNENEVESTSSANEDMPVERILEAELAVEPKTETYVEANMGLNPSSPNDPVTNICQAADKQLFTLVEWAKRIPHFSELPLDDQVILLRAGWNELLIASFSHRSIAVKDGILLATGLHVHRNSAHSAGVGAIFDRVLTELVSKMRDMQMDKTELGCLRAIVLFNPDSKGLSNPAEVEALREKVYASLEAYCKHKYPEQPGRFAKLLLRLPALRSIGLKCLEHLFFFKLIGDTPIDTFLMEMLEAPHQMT
From the text: (§1) Total cell lysates were immunoprecipitated with anti-Flag antibody (M2). Aliquots of the immunocomplexes were used for the in vitro kinase reaction with [γ-^32P]ATP and separated on SDS-PAGE. Phosphorylated proteins were detected by autoradiography (top panel). Additional aliquots of the immunocomplexes were subjected to immunoblotting with polyclonal anti-RXR antisera (D20; bottom panel). (B) Phosphoamino acid analysis. Flag-RXR and the 160-kDa protein were phosphorylated in vitro and separated on SDS-PAGE as described above, then transferred onto PVDF membrane, detected by autoradiography, and cut out for hydrolysis with acid (6 N HCl). The phosphorylated amino acids and standards (P-Ser, P-Thr, and P-Tyr) were separated by thin-layer chromatography. Positions of the standards P-Ser, P-Thr, and P-Tyr were visualized by ninhydrin staining and are indicated by arrows. (C) In vivo metabolic labeling of transfected HEK 293 cells. […] Cells were washed with phosphate-free medium and starved for 90 minutes before incubation with [^32P]orthophosphate for another 4 hours. […] Total cell lysates were immunoprecipitated with anti-Flag antibody (M2) and subjected to separation on SDS-PAGE. Phosphorylated proteins were detected by autoradiography.
(§2) Total cell lysates were subjected to immunoprecipitation, and the in vitro kinase reaction performed as described above.
(§3) Cell lysis, immunoprecipitation with anti-Flag (M2), in vitro kinase assay, and detection of the phosphorylated proteins in the RXRα immunoprecipitated complexes were performed as described above.
(§4) Cell culture and transient transfection was performed as follows. HEK 293 cells were grown in Dulbecco's modified Eagle's medium (DMEM) supplemented with 10% fetal bovine serum (FBS), 100U of penicillin per ml and 10 μg of streptomycion per ml at 37° C. in 5% CO2. For expression of RXR protein, 100-mm dishes of cells were transfected at 50% confluence with 2 μg of plasmid DNA using Lipofectamine (Life Technologies) as specified by the manufacturer. At 32 hours post-transfection, cells were starved by incubating in DMEM medium with 2.5% charcoal-treated fetal bovine serum or 0.1-0.5% calf bovine serum overnight, and then treated with indicated agents. Cells were harvested by aspirating medium, rinsing in phosphate buffered saline (PBS), and extracting into Lysis Buffer (30 mM Tris-HCL, pH 7.4, 0.5% Nonidet P-40, 10% glycerol, 150 mM NaCl, 1 mM EDTA, 40 mM NaF, 1 mM sodium orthovanadate, and 0.5 mM phenylmethylsufonyl fluoride, and 1× protease inhibitors, (Roche Diagnostics) or 1×SDS Sample Buffer.
(§5) Immunoprecipitation was performed essentially as follows. Cells were solubilized in cold Lysis Buffer and subsequently clarified by centrifugation at 20,000 g for 10 minutes at 4° C. Immunoprecipitations were performed at 4° C. by incubating clarified cell extracts with the indicated antibodies (2 μg/ml) and protein A/G-agarose beads (1:30 dilution of a 50% suspension) on a rotating wheel for 4 hours to overnight. Agarose beads were pelleted by low speed centrifugation and washed extensively with ice-cold Lysis Buffer.
(§6) Protein kinase assays were performed as follows. Immunoprecipitated complexes were resuspended in 15 μl of Kinase Assay Buffer (30 mM Tris-HCl, pH 7.4 and 10 mM MgCl2). Kinase reactions were initiated by addition of 2.5 μl of 50 μM [γ-^32P]ATP (10 μCi) to the immune-complexes, followed by incubation at 25° C. with occasional shaking for 20 minutes, and terminated by addition of 6 μl 4×SDS Sample Buffer. After heating at 100° C. for 5 minutes, the reaction mixtures were resolved by 4-12% SDS-PAGE. Incorporation of ^32P into RXR or other proteins was determined by autoradiography.

[2] = system: RXR-associated protein kinase in Flag-RXR immunocomplexes; assay: as above; type: cell-based, human
From the text: as §1, §2, §3, §4, §5, §6

[3] = target: T2, RXRα phosphorylation by protein kinase A (Homo sapiens, UniProt P19793); assay: Phosphorylation of immunoprecipitated RXRα by purified PKA; type: biochemical; conditions: cells incubated with 10^-7 M ligand
T2 construct: host or cells: HEK293
T2 sequence (P19793 1-462): T1 sequence (P19793 1-462)
Description: Left panel: Cells were immunoprecipitated with anti-FLAG antibody, and the immunoprecipitates analyzed by SDS-PAGE and blotting with anti-PKA antibody. Right panel: Cells were immunoprecipitated with anti-PKA antibody, and the immunoprecipitates analyzed by SDS-PAGE and blotting with anti-FLAG antibody. B. Phosphorylation of RXRα by PKA. […] PKA I and PKC I indicate inhibitors of PKA and PKC, respectively.
RXRα-containing immunoprecipitates prepared with anti-Flag antibody were incubated with purified catalytically active PKA (Upstate Biotechnology) and […]; in addition, protein kinase A inhibitor or protein kinase C inhibitor was added to some reactions as indicated. The kinase reaction products were analyzed by SDS-PAGE.

[4] = target: protein kinase A activity associated with endogenous RXRα (Mus musculus, UniProt P28700); conditions: 3T3-L1 adipocytes, 10^-7 M, vs vehicle-treated cells
Description: Kinase activity was determined in the immunoprecipitate using kemptide (LRRASLG; SEQ ID NO: 59) as a substrate. Samples 1,3: 0.1% DMSO (10 minutes).
Kinase activity in the immunoprecipitates was determined as described above using γ-ATP and synthetic peptide SEQ ID NO: 59.

Sequence of protein kinase A activity associated with endogenous RXRα (P28700 whole entry): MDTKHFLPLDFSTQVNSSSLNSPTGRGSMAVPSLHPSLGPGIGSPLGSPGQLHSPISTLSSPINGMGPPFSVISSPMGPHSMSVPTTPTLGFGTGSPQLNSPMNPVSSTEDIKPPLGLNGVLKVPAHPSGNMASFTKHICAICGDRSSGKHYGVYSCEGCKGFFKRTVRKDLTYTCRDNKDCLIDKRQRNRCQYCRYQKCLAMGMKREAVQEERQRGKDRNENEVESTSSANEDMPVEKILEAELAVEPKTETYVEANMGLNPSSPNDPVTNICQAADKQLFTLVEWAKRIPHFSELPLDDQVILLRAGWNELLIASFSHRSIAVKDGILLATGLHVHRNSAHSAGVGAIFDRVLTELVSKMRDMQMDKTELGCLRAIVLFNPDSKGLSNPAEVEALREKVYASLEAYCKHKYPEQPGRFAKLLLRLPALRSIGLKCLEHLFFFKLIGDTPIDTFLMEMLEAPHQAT

CC(/C=C/[C@@H]1C[C@]1(C)c1ccc2c(c1)C(C)(C)CCC2(C)C)=C\C(=O)O [AGN194204]
phosphorylation of RXR and 160 kDa protein in Flag-RXR immunocomplexes [1]: contained a kinase phosphorylated RXR and a 160 kDa protein
recruitment of kinase activity to the immunocomplex ([2]; AF-2 region deleted from RXRα): kinase activity was not recruited
recruitment of kinase activity to the immunocomplex ([2]; RXRα deletion mutants containing an intact E region): recruited kinase activity
extent of RXRα phosphorylation by purified PKA [3]: increased
PKA activity associated with endogenous RXRα [4]: increased about two-fold
